Results taken from the supplement of paper PMC11451515.

Key:
Conditions in all cases: 48 h
[1] = test system: NOMO1; assay: cell viability relative to DMSO control; higher = less cytotoxic
Summary of the method: (§1)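 Viability, reported as a per-plate percentage of DMSO wells with cell-free wells as background, came from CellTiter-Glo One luminescence. Reading took place after 48 h at 37°C. Before that, NOMO1 or SEM (500 cells/well) or P12-Ichikawa (1000 cells/well) leukemia cells, adapted for at least four passages in each medium, were seeded in 1536-well plates (5 μl) and pin-dosed with library compounds in DMSO, 47 μM to 0.79 nM over 11 threefold points.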

[2] = test system: P12-Ichikawa; assay: as above
Summary of the method: as §1

[3] = test system: SEM cells; assay: as above
Summary of the method: as §1

[4] = test system: NOMO1; assay: AUC of viability dose-response curve (% viability x log10 dose units); higher = less sensitive
Summary of the method: (§2)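 Viability of medium-adapted leukemia cells was measured by CellTiter-Glo One luminescence after 48 h at 37°C with library compounds in DMSO. Doses were 11 threefold steps from 47 μM to 0.79 nM, in 1536-well plates at 500 or 1000 cells/well. Signals were normalised per plate to DMSO and cell-free wells and fitted with a four-parameter log-logistic model on log10 dose. Area under the curve was integrated by trapezoidal rule, with curves exceeding full viability scaled and failed quality-control curves removed.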

[5] = test system: P12-Ichikawa; assay: as above
Summary of the method: as §2

[6] = test system: SEM cells; assay: as above
Summary of the method: as §2

CC(=O)O[C@@]1(CC[C@H]2[C@@H]3\C=C(C)/C4=C/C(=O)CC[C@]4(C)[C@H]3CC[C@]12C)C(C)=O
cell viability [%]
Conditions | [1] | [2] | [3]
HPLM + 10% dialyzed FBS, 0.000781 µM | 115 | 99.7 | 79.1
HPLM + 10% dialyzed FBS, 0.00234 µM | 111 | 115 | 80
HPLM + 10% dialyzed FBS, 0.00702 µM | 107 | 109 | 82
HPLM + 10% dialyzed FBS, 0.0211 µM | 96.1 | 114 | 82.7
HPLM + 10% dialyzed FBS, 0.0632 µM | 109 | 109 | 105
HPLM + 10% dialyzed FBS, 0.19 µM | 123 | 117 | 99.4
HPLM + 10% dialyzed FBS, 0.569 µM | 130 | 112 | 95.8
HPLM + 10% dialyzed FBS, 1.71 µM | 107 | 112 | 99.2
HPLM + 10% dialyzed FBS, 5.12 µM | 110 | 115 | 108
HPLM + 10% dialyzed FBS, 15.4 µM | 116 | 106 | 98.4
HPLM + 10% dialyzed FBS, 46.1 µM | 119 | 89.1 | 104
RPMI 5 mM glucose + 10% FBS, 0.000781 µM | 100 | 101 | 89.3
RPMI 5 mM glucose + 10% FBS, 0.00234 µM | 102 | 107 | 83.8
RPMI 5 mM glucose + 10% FBS, 0.00702 µM | 99.9 | 110 | 86.7
RPMI 5 mM glucose + 10% FBS, 0.0211 µM | 110 | 117 | 97.6
RPMI 5 mM glucose + 10% FBS, 0.0632 µM | 101 | 115 | 93.5
RPMI 5 mM glucose + 10% FBS, 0.19 µM | 108 | 117 | 101
RPMI 5 mM glucose + 10% FBS, 0.569 µM | 107 | 120 | 100
RPMI 5 mM glucose + 10% FBS, 1.71 µM | 110 | 109 | 104
RPMI 5 mM glucose + 10% FBS, 5.12 µM | 109 | 100 | 95
RPMI 5 mM glucose + 10% FBS, 15.4 µM | 99 | 99.5 | 106
RPMI 5 mM glucose + 10% FBS, 46.1 µM | 108 | 85.5 | 99.7
RPMI 5 mM glucose + 10% dialyzed FBS, 0.000781 µM | 88.1 | 94.9 | 96.5
RPMI 5 mM glucose + 10% dialyzed FBS, 0.00234 µM | 92.1 | 102 | 96.7
RPMI 5 mM glucose + 10% dialyzed FBS, 0.00702 µM | 95.5 | 101 | 104
RPMI 5 mM glucose + 10% dialyzed FBS, 0.0211 µM | 113 | 112 | 109
RPMI 5 mM glucose + 10% dialyzed FBS, 0.0632 µM | 102 | 103 | 101
RPMI 5 mM glucose + 10% dialyzed FBS, 0.19 µM | 112 | 108 | 100
RPMI 5 mM glucose + 10% dialyzed FBS, 0.569 µM | 107 | 106 | 107
RPMI 5 mM glucose + 10% dialyzed FBS, 1.71 µM | 118 | 107 | 115
RPMI 5 mM glucose + 10% dialyzed FBS, 5.12 µM | 105 | 98.2 | 96.2
RPMI 5 mM glucose + 10% dialyzed FBS, 15.4 µM | 86.8 | 93.2 | 108
RPMI 5 mM glucose + 10% dialyzed FBS, 46.1 µM | 112 | 79 | 81.7

AUC of viability dose-response curve
Conditions | [4] | [5] | [6]
HPLM + 10% dialyzed FBS | 459 | 470 | 444
RPMI 5 mM glucose + 10% FBS | 465 | 460 | 455
RPMI 5 mM glucose + 10% dialyzed FBS | 449 | 464 | 472

CN1\C(=C(\O)C2=C(C=CS2)[S+]1([O-])=O)C(=O)NC3=CC=CC=N3
cell viability [%]
Conditions | [1] | [2] | [3]
HPLM + 10% dialyzed FBS, 0.000781 µM | 116 | 110 | 106
HPLM + 10% dialyzed FBS, 0.00234 µM | 122 | 105 | 108
HPLM + 10% dialyzed FBS, 0.00702 µM | 123 | 114 | 112
HPLM + 10% dialyzed FBS, 0.0211 µM | 125 | 116 | 103
HPLM + 10% dialyzed FBS, 0.0632 µM | 112 | 114 | 114
HPLM + 10% dialyzed FBS, 0.19 µM | 112 | 111 | 112
HPLM + 10% dialyzed FBS, 0.569 µM | 109 | 110 | 109
HPLM + 10% dialyzed FBS, 1.71 µM | 114 | 105 | 105
HPLM + 10% dialyzed FBS, 5.12 µM | 95.4 | 106 | 106
HPLM + 10% dialyzed FBS, 15.4 µM | 100 | 103 | 98.4
HPLM + 10% dialyzed FBS, 46.1 µM | 44.6 | 104 | 102
RPMI 5 mM glucose + 10% FBS, 0.000781 µM | 100 | 110 | 95
RPMI 5 mM glucose + 10% FBS, 0.00234 µM | 106 | 128 | 107
RPMI 5 mM glucose + 10% FBS, 0.00702 µM | 113 | 119 | 112
RPMI 5 mM glucose + 10% FBS, 0.0211 µM | 111 | 116 | 100
RPMI 5 mM glucose + 10% FBS, 0.0632 µM | 113 | 118 | 114
RPMI 5 mM glucose + 10% FBS, 0.19 µM | 114 | 118 | 101
RPMI 5 mM glucose + 10% FBS, 0.569 µM | 94.4 | 118 | 112
RPMI 5 mM glucose + 10% FBS, 1.71 µM | 101 | 92.1 | 103
RPMI 5 mM glucose + 10% FBS, 5.12 µM | 100 | 103 | 103
RPMI 5 mM glucose + 10% FBS, 15.4 µM | 93.1 | 97.9 | 108
RPMI 5 mM glucose + 10% FBS, 46.1 µM | 29.3 | 101 | 90.9
RPMI 5 mM glucose + 10% dialyzed FBS, 0.000781 µM | 113 | 117 | 110
RPMI 5 mM glucose + 10% dialyzed FBS, 0.00234 µM | 114 | 113 | 95.5
RPMI 5 mM glucose + 10% dialyzed FBS, 0.00702 µM | 117 | 116 | 112
RPMI 5 mM glucose + 10% dialyzed FBS, 0.0211 µM | 116 | 115 | 108
RPMI 5 mM glucose + 10% dialyzed FBS, 0.0632 µM | 110 | 118 | 107
RPMI 5 mM glucose + 10% dialyzed FBS, 0.19 µM | 114 | 111 | 112
RPMI 5 mM glucose + 10% dialyzed FBS, 0.569 µM | 97.3 | 110 | 104
RPMI 5 mM glucose + 10% dialyzed FBS, 1.71 µM | 107 | 109 | 112
RPMI 5 mM glucose + 10% dialyzed FBS, 5.12 µM | 109 | 100 | 106
RPMI 5 mM glucose + 10% dialyzed FBS, 15.4 µM | 92.7 | 105 | 106
RPMI 5 mM glucose + 10% dialyzed FBS, 46.1 µM | 46.3 | 109 | 103

AUC of viability dose-response curve
Conditions | [4] | [5] | [6]
HPLM + 10% dialyzed FBS | 450 | 465 | 467
RPMI 5 mM glucose + 10% FBS | 453 | 449 | 474
RPMI 5 mM glucose + 10% dialyzed FBS | 455 | 459 | 475
